Several values for one entry are separate records, joined by “and”; a condition that tells them apart may be missing. Equal entries are not always repeated.

One assay addresses T1, PAQR6 (Homo sapiens, UniProt Q6TCH4).
T1 construct: expressed in transfected cells; host or cells: Saccharomyces cerevisiae BY4742, GAL1-driven pYES260 plasmid
T1 sequence (Q6TCH4 1-344): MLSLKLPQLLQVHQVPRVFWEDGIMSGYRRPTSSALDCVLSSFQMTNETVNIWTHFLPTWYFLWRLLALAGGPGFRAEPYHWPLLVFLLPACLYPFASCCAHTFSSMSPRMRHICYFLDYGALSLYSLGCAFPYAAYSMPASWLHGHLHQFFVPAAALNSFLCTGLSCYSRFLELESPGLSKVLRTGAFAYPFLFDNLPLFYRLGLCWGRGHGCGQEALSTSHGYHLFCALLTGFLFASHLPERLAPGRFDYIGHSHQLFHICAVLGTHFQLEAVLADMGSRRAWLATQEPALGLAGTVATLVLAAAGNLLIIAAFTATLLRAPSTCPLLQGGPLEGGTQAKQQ
Put plainly: FET3-lacZ reporter repression in yeast expressing PAQR6. Format: cell-based. The following applies: PAQR6, Table 3. The source says: (§1) Plasmids and primers. Human PAQRs were cloned into various vectors by PCR from commercially/publically available cDNAs. PAQRs were cloned into the pYES260 (Melcher, 2000), pRS316 (Liu et al., 1992) or pGREG536 (Jansen et al., 2005) expression vectors using gap repair. The pJK90 plasmid containing a Dual Topology Reporter (DTR)-tagged OST4 gene driven by the constitutive TPI1 promoter was kindly provided by Dr. Gunnar von Heijne (Stockholm University) (Kim et al., 2003). The OST4 open reading frame in pJK90 was replaced with the PAQR6 and mPRα open reading frames by gap repair. Primers for all cloning reactions are listed herein. Proteins expressed in pYES260 have an N-terminal 6×-histidine tag followed by a TEV protease cleavage site. Proteins expressed in pGREG536 have an N-terminal 7×-HA tag. Proteins expressed in the pRS316 vector are untagged. The pYES260, pRS316 and pGREG536 vectors allow for galactose-inducible expression via the GAL1 promoter. […] The FET3-lacZ plasmid was previously described (Kupchak et al., 2007). […]
(§2) Assays and growth conditions. […] Cells were allowed to grow to mid-log phase at which time the activity of the FET3 gene was monitored using a FET3-lacZ promoter-reporter construct. lacZ activities are presented as a percentage of activity seen in untreated cells expressing the appropriate empty expression vector control. […]

Another assay deals with FET3. The assay is described as follows: FET3-lacZ reporter in wild type yeast carrying empty expression plasmid. Format: cell-based, Saccharomyces cerevisiae. The following applies: no human PAQR. The source says: (§3) Assays and growth conditions. Strains were maintained using standard protocol and grown in synthetic defined (SD) media with the appropriate amino acids to match the auxotrophies of the individual strains. Low Iron Medium (LIM) contains EDTA to limit iron-bioavailability and its composition has been previously described (Kupchak et al., 2007). […] In brief, overnights of cells grown in SD-glucose media were re-inoculated into iron-deficient LIM to induce the expression of FET3. 2% galactose was used as a carbon source to induce full expression of PAQR genes driven by the GAL1 promoter, while 0.05% galactose/1.95% raffinose was used for reduced PAQR expression. All ligands were added to the growth medium upon re-inoculation into LIM. For experiments in which steroids were added as ligands, steroids were added from ethanol stocks and “untreated” controls are actually treated with an equal volume of ethanol to control for vehicle effects. Cells were allowed to grow to mid-log phase at which time the activity of the FET3 gene was monitored using a FET3-lacZ promoter-reporter construct. lacZ activities are presented as a percentage of activity seen in untreated cells expressing the appropriate empty expression vector control. For individual experiments, each data point has been done in triplicate and the error bars represent +/−1 standard deviation. All experiments were performed at least three times and a representative experiment is shown. EC50 values were obtained using the web-based BioDataFit software using sigmoidal curve-fitting. (web site changbioscience.com/stat/ec50.html)

Another assay deals with Class II PAQRs. The assay is described as follows: FET3-lacZ response of the human PAQR panel to 10 μM progesterone: Class II. In kind it is cell-based.
Text: as §1, §2

A further assay concerns the target T2, mPRγ (Homo sapiens, UniProt Q9NXK6).
T2 construct: Full length and truncated mPRγ and mPRα were expressed in wild type cells grown in 2% galactose from the pGREG536 vector; expressed in transfected cells; host or cells: Saccharomyces cerevisiae (BY4742 wild type; also gpa mutants), GAL1-driven plasmids
T2 sequence (Q9NXK6 1-330): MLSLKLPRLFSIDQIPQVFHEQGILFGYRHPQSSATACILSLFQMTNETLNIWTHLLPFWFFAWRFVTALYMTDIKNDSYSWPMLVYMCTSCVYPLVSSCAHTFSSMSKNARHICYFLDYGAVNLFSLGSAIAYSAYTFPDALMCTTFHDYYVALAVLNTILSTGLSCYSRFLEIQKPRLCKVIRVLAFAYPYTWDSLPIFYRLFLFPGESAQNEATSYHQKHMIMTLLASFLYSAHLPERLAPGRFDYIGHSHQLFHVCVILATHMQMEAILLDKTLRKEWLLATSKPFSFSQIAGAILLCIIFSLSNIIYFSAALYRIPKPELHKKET
The assay is described as follows: FET3-lacZ reporter repression in yeast expressing mPRγ. Format: cell-based.
Text: Plasmids and primers. Human PAQRs were cloned into various vectors by PCR from commercially/publically available cDNAs. PAQRs were cloned into the pYES260 (Melcher, 2000), pRS316 (Liu et al., 1992) or pGREG536 (Jansen et al., 2005) expression vectors using gap repair. The pJK90 plasmid containing a Dual Topology Reporter (DTR)-tagged OST4 gene driven by the constitutive TPI1 promoter was kindly provided by Dr. Gunnar von Heijne (Stockholm University) (Kim et al., 2003). The OST4 open reading frame in pJK90 was replaced with the PAQR6 and mPRα open reading frames by gap repair. Primers for all cloning reactions are listed herein. Proteins expressed in pYES260 have an N-terminal 6×-histidine tag followed by a TEV protease cleavage site. Proteins expressed in pGREG536 have an N-terminal 7×-HA tag. Proteins expressed in the pRS316 vector are untagged. The pYES260, pRS316 and pGREG536 vectors allow for galactose-inducible expression via the GAL1 promoter. […] The FET3-lacZ plasmid was previously described (Kupchak et al., 2007). Plasmids derived from pADM4 carrying hyperactive alleles of Gpa1p (Gpa1p^Q323L) (Slessareva et al., 2006) and Gpa2p (Gpa2p^Q300L) (Harashima et al., 2002) driven by the ADH1 promoter were kindly provided by Dr. Henrik Dohlman (UNC Chapel Hill). A pRS316-based plasmid containing the STE2 gene under the control of the GAL1 promoter (Feng et al., 2000) was kindly provided by Dr. Nicholas G. Davis (Wayne State University).
as §3

The target of the next assay is T3, mPRβ (Homo sapiens, UniProt Q8TEZ7).
T3 construct: expressed in transfected cells; host or cells: Saccharomyces cerevisiae BY4742, GAL1-driven pYES260 plasmid
T3 sequence (Q8TEZ7 1-354): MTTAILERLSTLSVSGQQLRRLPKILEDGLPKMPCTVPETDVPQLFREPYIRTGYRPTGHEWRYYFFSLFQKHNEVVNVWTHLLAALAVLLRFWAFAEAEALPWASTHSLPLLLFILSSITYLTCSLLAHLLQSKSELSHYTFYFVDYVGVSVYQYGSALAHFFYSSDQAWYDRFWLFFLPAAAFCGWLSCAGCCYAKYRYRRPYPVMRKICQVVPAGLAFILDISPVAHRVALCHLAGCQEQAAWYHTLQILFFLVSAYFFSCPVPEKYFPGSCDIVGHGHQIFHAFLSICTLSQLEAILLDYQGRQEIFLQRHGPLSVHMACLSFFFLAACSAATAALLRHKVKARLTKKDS
The assay is described as follows: FET3-lacZ reporter repression in yeast expressing mPRβ. In kind it is cell-based. The following applies: Table 3, iron deficient LIM, 0.05% galactose.
Text: as §1, §2

Take `CC(=O)[C@H]1CC[C@H]2[C@@H]3CCC4=CC(=O)CC[C@]4(C)[C@H]3CC[C@]12C` [Progesterone, progesterone]: the EC50 (as a rule, the concentration that produces a half-maximal response) on PAQR6 was 2.6 nM; at mPRγ (mPRγ column of Table 4, ligand alone), 1.1 nM; at mPRγ (mPRγ, Table 3, iron deficient LIM, 0.05% galactose), 1.3 nM and 1 to 3 nM; on mPRγ (mPRγ, progesterone in the presence of 100 nM RU-486) it was 15.5 nM; on mPRγ (mPRγ, progesterone in the presence of 10 μM testosterone) it was 10.7 nM; at mPRβ it was 1.6 nM and 1 to 3 nM. Moreover, the “effect of ligand on FET3 in cells carrying empty expression plasmid” value in the assay on FET3 is on record as “did not respond”. Further, the “agonist effect on all five Class II PAQRs” value in the assay on Class II PAQRs is listed as “effective agonist”.

For the origin of these results see patent US8809001B2, “High throughput assays for inhibitors and activators of PAQR receptors” (University of Florida Research Foundation, Inc., priority 2007, dated 2014).
